Each structure is given as a SMILES string.

The first assay relates to HBV. Description: HBV inhibition assay in HepAD38 cells (extracellular HBV DNA by direct qPCR). Type of assay: cell-based, Hepatitis B virus. The settings on record: 0.05 μM, 96 hours, relative to non-treated reference.
With `CCOC(=O)N1CC2COc3c(cn(C)c3C(=O)Nc3ccc(F)c(F)c3)S(=O)(=O)NC2C1` (single isomer, unassigned) [Example E37, Ethyl 8-((3,4-difluorophenyl)carbamoyl)-7-methyl-3a,4,10,10a-tetrahydro-1H,7H-dipyrrolo[3,4-b:3′,4′-f][1,4,5]oxathiazocine-2(3H)-carboxylate 5,5-dioxide (Chiral 3aS,10aS or 3aR,10aR - Stereochemistry unknown)], the “Anti HBV Activity (conc μM)” value is recorded as “A (0.05) (HBV inhibition greater than 50% at the concentration indicated in the table)”.
On the same count and under the same terms, under `CCOC(=O)N1CC2COc3c(cn(C)c3C(=O)Nc3ccc(F)c(C(F)F)c3)S(=O)(=O)NC2C1` (single isomer, unassigned) [Example E43, Ethyl 8-((3-(difluoromethyl)-4-fluorophenyl)carbamoyl)-7-methyl-3a,4,10,10a-tetrahydro-1H,7H-dipyrrolo[3,4-b:3′,4′-f][1,4,5]oxathiazocine-2(3H)-carboxylate 5,5-dioxide (Chiral 3aS,10aS or 3aR,10aR - Stereochemistry unknown)] stands “A (0.05) (HBV inhibition greater than 50% at the concentration indicated in the table)”.
On to `CCOC(=O)N1CC2COc3c(cn(C)c3C(=O)Nc3ccc(F)c(C#N)c3)S(=O)(=O)NC2C1` (single isomer, unassigned) [Example E45, Ethyl 8-((3-cyano-4-fluorophenyl)carbamoyl)-7-methyl-3a,4,10,10a-tetrahydro-1H,7H-dipyrrolo[3,4-b:3′,4′-f][1,4,5]oxathiazocine-2(3H)-carboxylate 5,5-dioxide (Chiral 3aS,10aS or 3aR,10aR - Stereochemistry unknown)], for which the “Anti HBV Activity (conc μM)” value is “A (0.05) (HBV inhibition greater than 50% at the concentration indicated in the table)”.

The same assay, now with this note: 0.1 μM, 96 hours, relative to non-treated reference.
As to `Cn1cc2c(c1C(=O)Nc1ccc(F)c(F)c1)OCC1CCCC1NS2(=O)=O` (single isomer, unassigned) [Example E34, N-(3,4-difluorophenyl)-2-methyl-5a,6,7,8,8a,9-hexahydro-2H,5H-cyclopenta[f]pyrrolo[3,4-b][1,4,5]oxathiazocine-1-carboxamide 4,4-dioxide (Chiral 5aS,8aR or 5aR,8aS - Stereochemistry unknown)], the “Anti HBV Activity (conc μM)” value is on record as “B (0.1) (HBV inhibition less than 50% at the concentration indicated in the table)”.
On the same count and under the same terms, under `Cn1cc2c(c1C(=O)Nc1ccc(F)c(F)c1)OCC1CCCC1NS2(=O)=O` (single isomer, unassigned) [Example E35, N-(3,4-difluorophenyl)-2-methyl-5a,6,7,8,8a,9-hexahydro-2H,5H-cyclopenta[f]pyrrolo[3,4-b][1,4,5]oxathiazocine-1-carboxamide 4,4-dioxide (Chiral 5aS,8aR or 5aR,8aS - Stereochemistry unknown)] stands “A (0.1) (HBV inhibition greater than 50% at the concentration indicated in the table)”.
Regarding `CCOC(=O)N1CC2COc3c(cn(C)c3C(=O)Nc3ccc(F)c(F)c3)S(=O)(=O)NC2C1` (single isomer, unassigned) [Example E38, Ethyl 8-((3,4-difluorophenyl)carbamoyl)-7-methyl-3a,4,10,10a-tetrahydro-1H,7H-dipyrrolo[3,4-b:3′,4′-f][1,4,5]oxathiazocine-2(3H)-carboxylate 5,5-dioxide (Chiral 3aS,10aS or 3aR,10aR - Stereochemistry unknown)], the “Anti HBV Activity (conc μM)” value was “B (0.1) (HBV inhibition less than 50% at the concentration indicated in the table)”.
As to `CCOC(=O)N1CC2COc3c(cn(C)c3C(=O)Nc3ccc(F)c(C(F)F)c3)S(=O)(=O)NC2C1` (single isomer, unassigned) [Example E44, Ethyl 8-((3-(difluoromethyl)-4-fluorophenyl)carbamoyl)-7-methyl-3a,4,10,10a-tetrahydro-1H,7H-dipyrrolo[3,4-b:3′,4′-f][1,4,5]oxathiazocine-2(3H)-carboxylate 5,5-dioxide (Chiral 3aS,10aS or 3aR,10aR - Stereochemistry unknown)], the “Anti HBV Activity (conc μM)” value is on record as “B (0.1) (HBV inhibition less than 50% at the concentration indicated in the table)”.

The assay is the same for the next values; noted with them: 96 hours, 8-point dose-response curve, read-out: HBV inh EC50.
Turning to `Cc1cc(NC(=O)c2c3c(cn2C)S(=O)(=O)NC2CN(C(=O)C45CC(CO4)C5)CCC2CO3)ccc1F` (racemic) [Example E143, Trans-7-(2-oxabicyclo[2.1.1]hexane-1-carbonyl)-N-(4-fluoro-3-methylphenyl)-2-methyl-5,5a,6,7,8,9,9a,10-octahydro-2H-pyrido[3,4-f]pyrrolo[3,4-b][1,4,5]oxathiazocine-1-carboxamide 4,4-dioxide], the half-maximal effective concentration (EC50) was less than 1000 nM.
Still for that read-out and setting: to `Cc1cc(NC(=O)c2c3c(cn2C)S(=O)(=O)NC2CN(C(=O)c4ncoc4C)CCC2CO3)ccc1F` (racemic) [Example E144, Trans-N-(4-fluoro-3-methylphenyl)-2-methyl-7-(5-methyloxazole-4-carbonyl)-5,5a,6,7,8,9,9a,10-octahydro-2H-pyrido[3,4-f]pyrrolo[3,4-b][1,4,5]oxathiazocine-1-carboxamide 4,4-dioxide] belongs less than 1000 nM; to `Cn1cc2c(c1C(=O)Nc1ccc(F)c(F)c1)OCC1CCCC1NS2(=O)=O` (single isomer, unassigned) [Example E35, N-(3,4-difluorophenyl)-2-methyl-5a,6,7,8,8a,9-hexahydro-2H,5H-cyclopenta[f]pyrrolo[3,4-b][1,4,5]oxathiazocine-1-carboxamide 4,4-dioxide (Chiral 5aS,8aR or 5aR,8aS - Stereochemistry unknown)], less than 1000 nM; to `CCOC(=O)N1CC2COc3c(cn(C)c3C(=O)Nc3ccc(F)c(C(F)F)c3)S(=O)(=O)NC2C1` (single isomer, unassigned) [Example E43, Ethyl 8-((3-(difluoromethyl)-4-fluorophenyl)carbamoyl)-7-methyl-3a,4,10,10a-tetrahydro-1H,7H-dipyrrolo[3,4-b:3′,4′-f][1,4,5]oxathiazocine-2(3H)-carboxylate 5,5-dioxide (Chiral 3aS,10aS or 3aR,10aR - Stereochemistry unknown)], less than 1000 nM.

Staying with this assay, now noted: Hepatitis B virus, 0.05 μM, 96 hours, relative to non-treated reference, read-out: Anti HBV Activity (conc μM).
As for `Cn1cc2c(c1C(=O)Nc1cc(F)c(F)c(F)c1)OC[C@H]1CN(C(=O)c3ncco3)C[C@H]1NS2(=O)=O` (relative stereo) [Example E50, cis-7-methyl-2-(oxazole-2-carbonyl)-N-(3,4,5-trifluorophenyl)-2,3,3a,4,10,10a-hexahydro-1H,7H-dipyrrolo[3,4-b:3′,4′-f][1,4,5]oxathiazocine-8-carboxamide 5,5-dioxide], the inhibition at 0.05 µM was more than 50%.
Same read-out and setting: under `CCOC(=O)N1C[C@H]2NS(=O)(=O)c3cn(C)c(C(=O)Nc4cc(F)c(F)c(F)c4)c3OC[C@@]2(C)C1` (relative stereo) [Example E85, cis-ethyl 7,10a-dimethyl-8-((3,4,5-trifluorophenyl)carbamoyl)-3a,4,10,10a-tetrahydro-1H,7H-dipyrrolo[3,4-b:3′,4′-f][1,4,5]oxathiazocine-2(3H)-carboxylate 5,5-dioxide] stands more than 50%; under `CCOC(=O)N1C[C@H]2COc3c(cn(C)c3C(=O)Nc3ccc(F)c(C)c3)S(=O)(=O)N[C@H]2C1` (single isomer, unassigned) [Example E39], more than 50%.

Still in this assay, the particulars now being: Hepatitis B virus, 0.1 μM, 96 hours, relative to non-treated reference, read-out: Anti HBV Activity (conc μM).
On to `Cc1cc(NC(=O)c2c3c(cn2C)S(=O)(=O)N[C@@H]2CN(C(=O)c4ccncc4)C[C@@H]2CO3)ccc1F` (relative stereo) [Example E55, cis-N-(4-fluoro-3-methylphenyl)-2-isonicotinoyl-7-methyl-2,3,3a,4,10,10a-hexahydro-1H,7H-dipyrrolo[3,4-b:3′,4′-f][1,4,5]oxathiazocine-8-carboxamide 5,5-dioxide], for which the inhibition at 0.1 µM was more than 50%.
On the same count and under the same terms, to `Cn1cc2c(c1C(=O)Nc1cc(F)c(F)c(F)c1)OC[C@H]1CN(C(=O)COP(=O)(O)O)C[C@H]1NS2(=O)=O` (relative stereo) [Example E72, cis-2-(7-methyl-5,5-dioxido-8-((3,4,5-trifluorophenyl)carbamoyl)-3a,4,10,10a-tetrahydro-1H,7H-dipyrrolo[3,4-b:3′,4′-f][1,4,5]oxathiazocin-2(3H)-yl)-2-oxoethyl Dihydrogen Phosphate] belongs less than 50%.
Turning to `Cn1cc2c(c1C(=O)Nc1ccc(F)c(F)c1)OC[C@H]1NCC[C@H]1NS2(=O)=O` (single isomer, unassigned) [Example E25], the inhibition at 0.1 µM was less than 50%.
Still for that read-out and setting: under `CNC(=O)N1CC[C@H]2NS(=O)(=O)c3cn(C)c(C(=O)Nc4ccc(F)c(F)c4)c3OC[C@H]21` (single isomer, unassigned) [Example E26] stands less than 50%.

The same assay, now with this note: Hepatitis B virus, 96 hours, 8-point dose-response curve, read-out: HBV inh EC50.
`Cn1cc2c(c1C(=O)Nc1cc(F)c(F)c(F)c1)OC[C@H]1CN(C(=O)c3ncco3)C[C@H]1NS2(=O)=O` (relative stereo) [Example E50, cis-7-methyl-2-(oxazole-2-carbonyl)-N-(3,4,5-trifluorophenyl)-2,3,3a,4,10,10a-hexahydro-1H,7H-dipyrrolo[3,4-b:3′,4′-f][1,4,5]oxathiazocine-8-carboxamide 5,5-dioxide]: the EC50 was less than 1000 nM.
`Cc1nnc(C(=O)N2C[C@@H]3COc4c(cn(C)c4C(=O)Nc4ccc(F)c(C)c4)S(=O)(=O)N[C@@H]3C2)s1` (relative stereo) [Example E62, cis-N-(4-fluoro-3-methylphenyl)-7-methyl-2-(5-methyl-1,3,4-thiadiazole-2-carbonyl)-2,3,3a,4,10,10a-hexahydro-1H,7H-dipyrrolo[3,4-b:3′,4′-f][1,4,5]oxathiazocine-8-carboxamide 5,5-dioxide]: the EC50 is less than 1000 nM.
For the compound `Cn1cc2c(c1C(=O)Nc1cc(F)c(F)c(F)c1)OC[C@H]1CN(c3ncc(O)cn3)C[C@H]1NS2(=O)=O` (relative stereo) [Example E84, cis-2-(5-hydroxypyrimidin-2-yl)-7-methyl-N-(3,4,5-trifluorophenyl)-2,3,3a,4,10,10a-hexahydro-1H,7H-dipyrrolo[3,4-b:3′,4′-f][1,4,5]oxathiazocine-8-carboxamide 5,5-dioxide], the EC50 was less than 1000 nM.
Still for that read-out and setting: under `Cc1cc(NC(=O)c2c3c(cn2C)S(=O)(=O)N[C@@H]2CCN(C(=O)C4(C)COC4)C[C@H]2CO3)ccc1F` (relative stereo) [Example E131, Trans-N-(4-fluoro-3-methylphenyl)-2-methyl-8-(3-methyloxetane-3-carbonyl)-5,5a,6,7,8,9,9a,10-octahydro-2H-pyrido[4,3-f]pyrrolo[3,4-b][1,4,5]oxathiazocine-1-carboxamide 4,4-dioxide] stands less than 1000 nM; under `Cc1nnc(C(=O)N2CC[C@H]3COc4c(cn(C)c4C(=O)Nc4ccc(F)c(C)c4)S(=O)(=O)N[C@@H]3C2)o1` (relative stereo) [Example E140, Trans-N-(4-fluoro-3-methylphenyl)-2-methyl-7-(5-methyl-1,3,4-oxadiazole-2-carbonyl)-5,5a,6,7,8,9,9a,10-octahydro-2H-pyrido[3,4-f]pyrrolo[3,4-b][1,4,5]oxathiazocine-1-carboxamide 4,4-dioxide], less than 1000 nM.
The same measure, in the same setting: to `Cc1nnc(C(=O)N2C[C@H]3COc4c(cn(C)c4C(=O)Nc4ccc(F)c(C)c4)S(=O)(=O)N[C@@H]3C2)o1` (relative stereo) [Example E146, Trans-N-(4-fluoro-3-methylphenyl)-7-methyl-2-(5-methyl-1,3,4-oxadiazole-2-carbonyl)-2,3,3a,4,10,10a-hexahydro-1H,7H-dipyrrolo[3,4-b:3′,4′-f][1,4,5]oxathiazocine-8-carboxamide 5,5-dioxide] belongs less than 1000 nM.
Still for that read-out and setting: to `CCOC(=O)N1C[C@H]2COc3c(cn(C)c3C(=O)Nc3ccc(F)c(C)c3)S(=O)(=O)N[C@H]2C1` (single isomer, unassigned) [Example E39] belongs less than 1000 nM.

A word on the EC50: it is the concentration giving half of the maximal effect.

The record behind these values is patent US11504382B2, “Tricyclic inhibitors of Hepatitis B virus” (Antios Therapeutics, Inc., priority 2018, dated 2022).
